Measurements from US6410792B1, “Amide derivatives and methods for using the same as selective neuropeptide Y receptor antagonists” (Bayer Corporation, priority 1997, dated 2002).
Counter-ions that a name gives are not always drawn.

Biological target: T1, Human NPY5 receptor (Homo sapiens, UniProt Q15761)
T1 sequence (Q15761 1-445): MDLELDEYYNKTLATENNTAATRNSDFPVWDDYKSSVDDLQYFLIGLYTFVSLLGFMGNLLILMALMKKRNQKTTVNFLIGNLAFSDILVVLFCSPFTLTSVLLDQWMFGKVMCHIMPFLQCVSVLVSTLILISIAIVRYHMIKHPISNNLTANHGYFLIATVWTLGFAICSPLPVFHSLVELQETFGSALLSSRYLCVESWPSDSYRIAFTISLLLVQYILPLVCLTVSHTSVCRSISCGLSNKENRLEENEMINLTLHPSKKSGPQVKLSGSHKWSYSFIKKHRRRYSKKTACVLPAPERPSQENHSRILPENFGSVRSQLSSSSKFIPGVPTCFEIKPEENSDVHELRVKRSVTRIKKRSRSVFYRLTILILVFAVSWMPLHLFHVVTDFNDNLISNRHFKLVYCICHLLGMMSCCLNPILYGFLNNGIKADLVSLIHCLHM
Assay: Human NPY5 receptor binding assay ([125I]PYY, membrane protein)
Conditions: [125I]PYY binding, read-out: hNPY5 IC50
Procedure: C. Human and Rat NPY5 Receptor Binding Assays
Binding assays are performed on GF/C Millipore 96well plates pretreated with 0.02% polyethylenimine. The binding buffer is 25 mM Tris, 120 mM NaCl, 5 mM KCl, 1.2 mM KH2PO4, 2.5 mM CaCl2, 1.2 mM MgSO4, 0.1% BSA and 0.5 mg/ml bacitracin, pH 7.4. Samples consist of membrane protein, 75-100 pM [125I]PYY (porcine, NEN-DuPont) and drug dilution. Nonspecific binding is defined by 1 μM PYY. After a 2 hour incubation at room temperature with constant mixing, the samples are aspirated on a vacuum manifold, and rinsed with ice-cold binding buffer. The amount of radioactivity in each well is quantitated with either gamma counting or liquid scintillation.

Row | Compound | IC50 [µM]
1 | 1-[(4 Benzoyl-phenylcarbamoyl)-methyl]-4-dimethylamino-piperidine-4-carboxylic acid amide [Compound 53] | 0.44
2 | 1-[(4-Cyclohexyl-phenylcarbamoyl)-methyl]-piperidine-4-carboxylic acid [Compound 25] | 1.9
3 | 2-[4-(4-Bromo-phenyl)-4-hydroxy-piperidin-1-yl]-N-(4-cyclohexyl-phenyl)-acetamide [Compound 88] | 0.12
4 | 2-[4-(4-Chloro-phenyl)-3,6-dihydro-2H-pyridin-1-yl]-N-(4-cyclohexyl-phenyl)-acetamide [Compound 15] | 2.7
5 | O=C(CN1CCC(O)(Cc2ccccc2)CC1)Nc1ccc(C2CCCCC2)cc1 [Compound 1, 2-(4-Benzyl-4-hydroxypiperidin-1-yl)-N-(4-cyclohexylphenyl)acetamide] | 0.15
6 | CN(C)CC(=O)Nc1ccc(C2CCCCC2)cc1 [Compound 2, N-(4-Cyclohexyl-phenyl)-2-dimethylamino-acetamide] | 0.78
7 | O=C(CN1C[C@H](O)C[C@H]1C(=O)O)Nc1ccc(C2CCCCC2)cc1 [Compound 12, (4R,2S)-1-[(4-Cyclohexyl-phenylcarbamoyl)-methyl]-4-hydroxy-pyrrolidine-2-carboxylic acid] | 8.9
8 | CN(C)C1(C(N)=O)CCN(CC(=O)Nc2ccc(C3CCCCC3)cc2)CC1 [Compound 65, 1-[(4-Cyclohexyl-phenylcarbamoyl)-methyl]-4-dimethylamino-piperidine-4-carboxylic acid amide] | 0.69
9 | O=C(CNC(c1ccccc1)c1ccccc1)Nc1ccc(C2CCCCC2)cc1 [Compound 131, 2-(Benzhydryl-amino)-N-(4-cyclohexyl-phenyl)-acetamide] | > 5
10 | NCCNCC1CCN(CC(=O)Nc2ccc(C(=O)c3ccccc3)cc2)CC1 [Compound 134, 2-{4-[(2-Amino-ethylamino)-methyl]-piperidin-1-yl}-N-(4-benzoyl-phenyl)-acetamide] | > 5
11 | O=C(CN1CCCC1)Nc1ccc(C(=O)c2ccccc2)cc1 [Compound 136, N-(4-Benzoyl-phenyl)-2-pyrrolidin-1-yl-acetamide] | > 5
12 | O=C(CNc1nc[nH]n1)Nc1ccc(C(=O)c2ccccc2)cc1 [Compound 137, N-(4-Benzoyl-phenyl)-2-(1H-[1,2,4]triazol-3-ylamino)-acetamide] | > 5
13 | O=C(CNC(c1ccccc1)c1ccccc1)Nc1ccc(C(=O)c2ccccc2)cc1 [Compound 138, 2-(Benzhydryl-amino)-N-(4-benzoyl-phenyl)-acetamide] | > 5
14 | Cn1cccc1CCNCC(=O)Nc1ccc(C(=O)c2ccccc2)cc1 [Compound 139, N-(4-Benzoyl-phenyl)-2-[2-(1-methyl-1H-pyrrol-2-yl)-ethylamino]-acetamide] | > 5
15 | CCCCCCCCCCNCC(=O)Nc1ccc(C2CCCCC2)cc1 [Compound 140, N-(4-Cyclohexyl-phenyl)-2-decylamino-acetamide] | > 5
16 | O=C(CNCCCc1ccccc1)Nc1ccc(C2CCCCC2)cc1 [Compound 141, N-(4-Cyclohexyl-phenyl)-2-(3-phenyl-propylamino)-acetamide] | > 5

Row | Compound | IC50 [µM]
17 | O=C(CNCCc1c[nH]cn1)Nc1ccc(C2CCCCC2)cc1 [Compound 142, N-(4-Cyclohexyl-phenyl)-2-[2-(1H-imidazol-4-yl)-ethylamino]-acetamide] | > 5
18 | O=C(CNCCc1c[nH]c2ccccc12)Nc1ccc(C2CCCCC2)cc1 [Compound 143, N-(4-Cyclohexyl-phenyl)-2-[2-(1H-indol-3-yl)-ethylamino]-acetamide] | > 5
19 | COc1ccc2[nH]cc(CCNCC(=O)Nc3ccc(C4CCCCC4)cc3)c2c1 [Compound 144, N-(4-Cyclohexyl-phenyl)-2-[2-(5-methoxy-1H-indol-3-yl)-ethylamino]-acetamide] | > 5
20 | COc1ccc(CCNCC(=O)Nc2ccc(C3CCCCC3)cc2)cc1 [Compound 145, N-(4-Cyclohexyl-phenyl)-2-[2-(4-methoxy-phenyl)-ethylamino]-acetamide] | > 5
21 | O=C(CNCCN1CCNCC1)Nc1ccc(C2CCCCC2)cc1 [Compound 146, N-(4-Cyclohexyl-phenyl)-2-(2-piperazin-1-yl-ethylamino)-acetamide] | > 5
22 | O=C(CNCCNc1ccc([N+](=O)[O-])cn1)Nc1ccc(C2CCCCC2)cc1 [Compound 147, N-(4-Cyclohexyl-phenyl)-2-[2-(5-nitro-pyridin-2-ylamino)-ethylamino]-acetamide] | > 5
23 | COc1ccccc1CNCC(=O)Nc1ccc(C2CCCCC2)cc1 [Compound 149, N-(4-Cyclohexyl-phenyl)-2-(2-methoxy-benzylamino)-acetamide] | > 5
24 | CCCCCCCCCCNCC(=O)Nc1ccc(C(=O)c2ccccc2)cc1 [Compound 150, N-(4-Benzoyl-phenyl)-2-decylamino-acetamide] | > 5
25 | O=C(CNCCCc1ccccc1)Nc1ccc(C(=O)c2ccccc2)cc1 [Compound 151, N-(4-Benzoyl-phenyl)-2-(3-phenyl-propylamino)-acetamide] | > 5
26 | O=C(CNCCc1c[nH]cn1)Nc1ccc(C(=O)c2ccccc2)cc1 [Compound 152, N-(4-Benzoyl-phenyl)-2-[2-(1H-imidazol-4-yl)-ethylamino]-acetamide] | > 5
27 | O=C(CNCCc1c[nH]c2ccccc12)Nc1ccc(C(=O)c2ccccc2)cc1 [Compound 153, N-(4-Benzoyl-phenyl)-2-[2-(1H-indo-3-yl)-ethylamino]-acetamide] | > 5
28 | COc1ccc(CCNCC(=O)Nc2ccc(C(=O)c3ccccc3)cc2)cc1 [Compound 155] | > 5
29 | O=C(CNCCN1CCNCC1)Nc1ccc(C(=O)c2ccccc2)cc1 [Compound 156, N-(4-Benzoyl-phenyl)-2-(2-piperazin-1-yl-ethylamino)-acetamide] | > 5
30 | O=C(CNCCNc1ccc([N+](=O)[O-])cn1)Nc1ccc(C(=O)c2ccccc2)cc1 [Compound 157, N-(4-Benzoyl-phenyl)-2-[2-(5-nitro-pyridin-2-ylamino)-ethylamino]-acetamide] | > 5
31 | O=C(CNCc1ccc2c(c1)OCO2)Nc1ccc(C(=O)c2ccccc2)cc1 [Compound 158, 2-[(Benzo[1,3]dioxol-5-ylmethyl)-amino]-N-(4-benzoyl-phenyl)-acetamide] | > 5
32 | COc1ccccc1CNCC(=O)Nc1ccc(C(=O)c2ccccc2)cc1 [Compound 159, N-(4-Benzoyl-phenyl)-2-(2-methoxy-benzylamino)-acetamide] | > 5

Biological target: T2, Y2 receptor (Homo sapiens, UniProt P49146)
T2 sequence (P49146 1-381): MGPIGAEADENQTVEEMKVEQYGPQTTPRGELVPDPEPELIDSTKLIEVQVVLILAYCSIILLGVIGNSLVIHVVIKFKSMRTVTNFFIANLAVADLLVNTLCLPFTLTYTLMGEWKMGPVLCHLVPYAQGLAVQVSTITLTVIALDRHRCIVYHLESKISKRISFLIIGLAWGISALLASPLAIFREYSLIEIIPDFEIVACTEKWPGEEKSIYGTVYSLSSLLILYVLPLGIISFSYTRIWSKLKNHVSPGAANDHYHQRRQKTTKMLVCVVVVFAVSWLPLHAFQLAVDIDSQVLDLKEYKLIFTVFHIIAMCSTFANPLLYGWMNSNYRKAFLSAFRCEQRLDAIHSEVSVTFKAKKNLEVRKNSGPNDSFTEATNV
Assay: Y2 receptor binding assay ([125I]PYY, membrane protein)
Conditions: [125I]PYY binding, membrane protein; read-out: hNPY2 IC50
Procedure: B. Human Y2 and Y4/PP1 Receptor Binding Assays
Binding assays were performed on GF/C Millipore 96-well plates pretreated with 0.02% polyethylenimine. The binding buffer for rat Y2 binding is Krebs-Ringer bicarbonate (pH 7.4) containing 0.01% BSA and 0.005% bacitracin. Samples consist of membrane protein, 25 pM [1251]PYY and drug dilution. Nonspecific binding is defined by 1 μM NPY. The binding buffer for human Y4/PP1 binding consists of 137 mM NaCl, 5.4 mM KCl, 0.44 mM KH2PO4, 1.26 mM CaCl2, 0.81 mM MgSO4, 20 mM HEPES, 1 mM dithiothreitol, 0.1% bacitracin, 100 mg/l streptomycin sulfate, 1 mg/l aprotinin, 10 mg/ml soybean trypsin inhibitor and 0.3% BSA, pH 7.4. Samples consist of membrane protein, 50 pM human [1251]human PP (hPP: NEN DuPont, Boston, Mass.) and drug dilution. 1 μM hPP is used to define nonspecific binding.
After a 2 hour incubation at room temperature with constant mixing, the samples are aspirated on a vacuum manifold, and rinsed with ice-cold binding buffer. The amount of radioactivity in each well is quantitated with either gamma counting or liquid scintillation.

Row | Compound | IC50 [µM]
33 | 1-[(4 Benzoyl-phenylcarbamoyl)-methyl]-4-dimethylamino-piperidine-4-carboxylic acid amide [Compound 53] | > 5
34 | 1-[(4-Cyclohexyl-phenylcarbamoyl)-methyl]-piperidine-4-carboxylic acid [Compound 25] | > 5
35 | 2-[4-(4-Bromo-phenyl)-4-hydroxy-piperidin-1-yl]-N-(4-cyclohexyl-phenyl)-acetamide [Compound 88] | > 5
36 | 2-[4-(4-Chloro-phenyl)-3,6-dihydro-2H-pyridin-1-yl]-N-(4-cyclohexyl-phenyl)-acetamide [Compound 15] | > 5
37 | O=C(CN1CCC(O)(Cc2ccccc2)CC1)Nc1ccc(C2CCCCC2)cc1 [Compound 1, 2-(4-Benzyl-4-hydroxypiperidin-1-yl)-N-(4-cyclohexylphenyl)acetamide] | > 5
38 | CN(C)CC(=O)Nc1ccc(C2CCCCC2)cc1 [Compound 2, N-(4-Cyclohexyl-phenyl)-2-dimethylamino-acetamide] | > 5
39 | O=C(CN1CCN(c2ccc(Cl)cc2)CC1)Nc1ccc(C2CCCCC2)cc1 [Compound 4, 2-[4-(4-Chloro-phenyl)-piperazin-1-yl]-N-(4-cyclohexyl-phenyl)-acetamide] | > 5
40 | O=C(CN1CCCC1C(=O)O)Nc1ccc(C(=O)c2ccccc2)cc1 (centres unmarked) [Compound 124, 1-[(4-Benzoyl-phenylcarbamoyl)-methyl]-pyrrolidine-2-carboxylic acid] | > 5

Same assay, conditions: [125I]PYY, membrane protein; read-out: hNPY2 IC50

Row | Compound | IC50 [µM]
41 | O=C(CN1CCC(n2c(=O)[nH]c3ccccc32)CC1)NC(c1ccccc1)c1ccccc1 [Compound 322, N-Benzhydryl-2-[4-(2-oxo-2,3-dihydro-benzoimidazol-1-yl)-piperidin-1-yl]-acetamide; hydrochloride] | > 5
